Reference: patent US5676937A, “Deodorant compositions comprising inhibitors of odor-producing axillary bacterial exoenzymes” (Colgate-Palmolive Company, priority 1995, dated 1997)
Where two headings read alike, the source gives them in different places.

Assays:
beta-glucuronidase [1] = biological target: T1, beta-glucuronidase (Escherichia coli, UniProt P05804); test: Semiquantitative assay of beta-glucuronidase (4-MUG to fluorescent 4-MU); assay type: biochemical, E. coli; set-up: key: + indicates enzyme inhibition; - indicates no enzyme inhibition; settings: test inhibitor at 0.1 mM to 100 mM, 37° C., Tris pH 7, fluorescence by UV lamp
T1 construct: purchased Sigma Chemical Co
Procedure: (§1) B-glucuronidase from E. coli and aryl sulfatase from Aerobacter aerogenes, 4-methyl umbelliferyl glucuronide, 4-methylumbelliferyl sulfate, 4-methylumbelliferone, and D-saccharic acid-.tangle-solidup.-lactone were purchased from Sigma Chemical Co. Sodium hexametaphosphate (SPORIX) was obtained from International Sourcing.
(§2) Semiquantitative assays of the exoenzymes beta-G and AS were prepared. The enzyme assays measure conversion at 37° C. of the non-fluorescent substrates 4-MUG (for beta-G) and 4-MUS (for AS) to fluorescent product, 4-MU. The assay mixtures contained:
(§3) For the semiquantitative studies, fluorescence was detected by long-wave UV lamp (Black-Light Eastern Corporation Model XX 15).
(§4) The effects of inhibitors on the enzymatic reactions were assessed by substituting aqueous Solutions of test inhibitor, at 0.1 mM to 100 mM, for the water. To rule out quenching of the fluorescence reaction by the inhibitors separate tests were performed comparing the fluorescence from 4-MU at the maximum concentration expected in the enzyme reaction mixtures with either inhibitor solution or water.
Various inhibiting compounds of mammalian beta-G's and AS's, as well as related materials, were tested in the assay. The classic inhibitor of beta-G is saccharic acid-.tangle-solidup.-lactone (glucarolactone). This material was tested as well as the simple sugars, mannose, fucose and galactosamine and the polysaccharide pullulan. One of the reported inhibitors of beta-G, EDTA, is a strong chelating agent. Also tested against the enzyme were o-phenanthroline, citrate, gluconate, nitrilotriacetate and hexametaphosophate.

aryl sulfatase [2] = biological target: T2, aryl sulfatase (Klebsiella aerogenes, UniProt P20713); assay type: biochemical; set-up: key: + indicates enzyme inhibition; - indicates no enzyme inhibition
T2 construct: purchased Sigma Chemical Co
T2 sequence (P20713 21-464): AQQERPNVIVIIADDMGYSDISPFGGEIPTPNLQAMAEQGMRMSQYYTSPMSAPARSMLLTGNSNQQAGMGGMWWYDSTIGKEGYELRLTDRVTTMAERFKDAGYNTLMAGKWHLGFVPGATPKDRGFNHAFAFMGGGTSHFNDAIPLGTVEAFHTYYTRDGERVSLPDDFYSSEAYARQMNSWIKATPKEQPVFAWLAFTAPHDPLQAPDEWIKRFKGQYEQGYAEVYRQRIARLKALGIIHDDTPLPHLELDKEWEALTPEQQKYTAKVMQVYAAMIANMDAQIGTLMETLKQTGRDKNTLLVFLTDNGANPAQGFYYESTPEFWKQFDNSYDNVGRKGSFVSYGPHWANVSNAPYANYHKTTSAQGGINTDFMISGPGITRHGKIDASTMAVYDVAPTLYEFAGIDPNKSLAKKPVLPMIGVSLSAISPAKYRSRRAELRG
Procedure: as §1, §2, §3, §4
Various inhibiting compounds of mammalian beta-G's and AS's, as well as related materials, were tested in the assay. The classic inhibitor of beta-G is saccharic acid-.tangle-solidup.-lactone (glucarolactone). This material was tested as well as the simple sugars, mannose, fucose and galactosamine and the polysaccharide pullulan. […] Also tested against the enzyme were o-phenanthroline, citrate, gluconate, nitrilotriacetate and hexametaphosophate.

beta-glucuronidase [3] = biological target: T1, beta-glucuronidase; test: Quantitative fluorimetric assay of beta-G; assay type: biochemical, E. coli; settings: FIG. 3; for level at which inhibition of beta-G is provided: in words; for effective inhibitor concentration range for beta-G: relative initial rate vs log inhibitor concentration, 37° C.
Procedure: In addition to the semiquantitative assays several inhibitors of each, beta-G and AS, were assayed by quantitative fluorimetry. […] Prior to the performance of quantitative assays it was necessary to determine absorption and emission maxima of the fluorescent product 4-MU, as well as a concentration range for which the fluorescence intensity of this species varies linearly with concentration. A solution of 4-MU, 2 μg.ml, was prepared in 0.1M Tris buffer, pH 7.0. The absorption spectrum was scanned, giving a maximum at 334 nm. The emission maximum, 444 nm, was obtained by scanning the emission spectrum while irradiating at 334 nm. All quantitative fluorescence studies employed these parameters.
The levels of 4-MU generated in beta-G and AS assays fell into range 1. The conversion factor was 1 fluorescence unit=0.09 μM 4-MU.
Samples were prepared as described above. All components, except the enzyme, were warmed to 37° C. before addition of the enzyme. During the assays, reaction mixtures were maintained at 37° C. Fluorescence intensities were measured as a function of time.
As in the semi-quantitative tests, the progress of the reactions was indicated by the development of fluorescent product 4-MU from the non-fluorescent substrates, 4-MUG and 4-MUS. The data was recorded as fluorescence emission intensity as a function of time. […] Similar plots were constructed for each inhibitor. At each concentration, the beginning slope indicates the initial reaction rate. These rates were then expressed as a fraction of the uninhibited reaction rate and plotted against the log of the inhibitor concentration.

aryl sulfatase [4] = biological target: T2, aryl sulfatase; test: Quantitative fluorimetric assay of AS; assay type: biochemical; settings: FIG. 4; relative initial rate vs log inhibitor concentration; 37° C.
Procedure: As in the semi-quantitative tests, the progress of the reactions was indicated by the development of fluorescent product 4-MU from the non-fluorescent substrates, 4-MUG and 4-MUS. The data was recorded as fluorescence emission intensity as a function of time. […] At each concentration, the beginning slope indicates the initial reaction rate. These rates were then expressed as a fraction of the uninhibited reaction rate and plotted against the log of the inhibitor concentration.

mixture of AS and betaG = test: Inhibition of odor from apocrine secretion treated with enzymes (panel odor evaluation); assay type: biochemical, E. coli; Aerobacter aerogenes; settings: enzymes (AS + betaG) + apocrine sweat + inhibitor 40 mM; 37° C.; evaluated at 24 hr and 48 hr; panel of five
Procedure: (§5) Apocrine secretion fluid was collected from eleven subjects. The axillary area was shaved, washed with a 0.1% solution of Triton X-100, rinsed with water, blotted dry, then rinsed with hexane. An intradermal injection of 0.1 ml of 1:2000 adrenaline was performed to stimulate the apocrine glands. Micropipettes (10 μl) were placed directly against the skin to collect the droplets of apocrine secretion. Samples were frozen until ready for use. The samples were eluted from the capillary tubes with 0.1M Tris buffer, pH 7.0, when ready for use in the odor-generation studies. Lipophilic diphtheroid cultures isolated from human axillae were obtained.
(§6) Inhibiting compounds were then tested to determine their effect on odor production in apocrine secretion. Sterile, odorless apocrine secretion was eluted from capillaries into 1.5 ml of 0.1M Tris buffer, pH 7.0. In the first study, apocrine sweat was treated with beta-glucuronidase, (E. coli) and aryl sulfatase (Aerobacter aerogenes) at 0.01 mg/ml in Tris buffer, 0.1M, pH 7.0. The apocrine secretion was also treated with the lipophilic diphtheroid and with a mixed culture of axillary bacteria, each in sterile saline suspension.
(§7) In a second study, inhibitors of the two enzymes were included in the reaction mixtures--Zn++ as Zn-Glycinate, saccharic acid lactone and hexametaphosphate. The concentration of each inhibitor used in this study was 40 mM. […]

S. aureus = test: Minimum inhibitory concentration, S. aureus; assay type: cell-based; settings: ">" = growth at the highest concentration
Procedure: (§8) Minimum Inhibitory Concentration (MIC) values of several zinc complexes were measured for three organisms that occur naturally in the axilla: S. epidermidis, S. aureus and a lipophilic diphtheroid.
(§9) Simple salts of zinc are known to be bacteriostatic. An outcome of the experiments was producing a method to reduce axillary odor without destroying the natural flora of the axilla. Therefore MIC values of several zinc complexes and the antiseptic Irgasan DP 300 (positive control) were measured against several organisms that occur naturally in the underarm, including S epidermidis, S. aureus, and a lipophilic diphtheroid. The ">" signs indicate that bacterial growth occurred at the highest concentration of zinc compound. None of the zinc compounds were conspicuously inhibitory, having effective levels ranging from 0.1 to 1%.

S. epidermidis = test: Minimum inhibitory concentration, S. epidermidis; assay type: cell-based; settings: ">" = growth at the highest concentration
Procedure: as §8, §9

lipophilic diphtheroid [5] = test: Minimum inhibitory concentration, lipophilic diphtheroid; assay type: cell-based; settings: ">" = growth at the highest concentration
Procedure: as §8, §9

axillary odor = test: Human clinical study of axillary deodorancy; assay type: in vivo; settings: for Mean Odor Score: four-judge average, ten-point scoring, Zn-GLY […], ACH 5.0%
Procedure: The negative control was water. Odor assessments were performed by four experienced professional evaluators from Hill Top Research, using a ten-point scoring system. Ninety subjects were recruited, and baseline scores were established after a twenty-four hour conditioning period. Sixty subjects with highest scores (all greater than 4) were retained for the study.
During the test the subjects were entered into a regimen of timed, supervised washes with conditioning soap bars, followed by supervised treatments with the test solutions and post-treatment odor evaluation. The evaluations were conducted at 5-hr and 24-hr intervals following treatments 2, 3 and 4 and all aspects were randomized to eliminate any biases.
Scores of the four judges were averaged for each person, for each evaluation. The axilla-to-axilla difference for each person was taken as the index of the deodorancy of the test material versus the water control.
The positive control was 5.0% aluminum chlorhydrate. […] The negative control was distilled deionized water.
The mean odor scores represent the four-judge average odor scores, post-treatment. The control values are the average baseline odor scores for the various cells.

lipophilic diphtheroid [6] = test: Inhibition of odor from apocrine secretion treated with lipophilic diphtheroids (panel odor evaluation); assay type: cell-based; settings: lipophilic diphtheroids + apocrine sweat + inhibitor 40 mM; 37° C.; evaluated at 24 hr and 48 hr; panel of five
Procedure: as §5, §6, §7

[7] = test inhibitor at 0.1 mM to 100 mM, 4-MUS, 37° C., Tris pH 7, fluorescence by UV lamp

T1 sequence (P05804 whole entry): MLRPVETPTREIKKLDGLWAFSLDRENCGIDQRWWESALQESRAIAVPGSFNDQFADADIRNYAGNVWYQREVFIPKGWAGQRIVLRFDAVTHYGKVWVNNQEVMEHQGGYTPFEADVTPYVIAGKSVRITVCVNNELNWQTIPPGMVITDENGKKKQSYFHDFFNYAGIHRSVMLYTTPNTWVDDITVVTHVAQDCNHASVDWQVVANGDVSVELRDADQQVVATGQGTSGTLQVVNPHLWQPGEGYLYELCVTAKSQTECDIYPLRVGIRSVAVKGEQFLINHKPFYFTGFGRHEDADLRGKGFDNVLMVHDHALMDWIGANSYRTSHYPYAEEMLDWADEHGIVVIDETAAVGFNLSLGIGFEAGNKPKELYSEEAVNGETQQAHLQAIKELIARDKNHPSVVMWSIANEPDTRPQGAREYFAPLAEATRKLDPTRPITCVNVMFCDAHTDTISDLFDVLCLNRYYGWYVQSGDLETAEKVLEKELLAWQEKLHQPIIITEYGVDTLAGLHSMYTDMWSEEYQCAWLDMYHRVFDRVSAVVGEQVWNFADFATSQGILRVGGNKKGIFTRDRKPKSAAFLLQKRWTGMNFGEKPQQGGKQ

Compound: pullulan
- inhibition of BETA-G (beta-glucuronidase [1]): -

Compound: O=S(=O)([O-])[O-].[Na+].[Na+] [Sodium sulfate]
- inhibition of BETA-G (beta-glucuronidase [1]): +

Compound: O=P(O)(O)O [Orthophosphate]
- inhibition of AS (aryl sulfatase [2]; pH 7): +

Compound: N[C@H]1C(O)O[C@H](CO)[C@H](O)[C@@H]1O (stereo partly shown) [Galactosamine, galactosamine]
- inhibition of BETA-G (beta-glucuronidase [1]): -

Compound: O=C(O)CN(CCN(CC(=O)O)CC(=O)O)CC(=O)O [EDTA, reference compound]
- inhibition of BETA-G (beta-glucuronidase [1]): +
- inhibition of AS (aryl sulfatase [2]; [7]): -
- level at which inhibition of beta-G is provided (beta-glucuronidase [3]): millimolar levels

Compound: fucose
- inhibition of BETA-G (beta-glucuronidase [1]): -

Compound: [Zn+2] [Zn++]
- inhibition of BETA-G (beta-glucuronidase [1]): +
- inhibition of AS (aryl sulfatase [2]; [7]): +
- effective inhibitor concentration range for beta-G (beta-glucuronidase [3]): 10 to 100 µM
- effective inhibitor concentration range for AS (aryl sulfatase [4]): 10-100 82 M

Compound: O=P1([O-])OP(=O)([O-])OP(=O)([O-])OP(=O)([O-])OP(=O)([O-])OP(=O)([O-])O1.[Na+].[Na+].[Na+].[Na+].[Na+].[Na+] [hexametaphosphate, Sodium hexametaphosphate]
- odor (mixture of AS and betaG): Faint/moderate musky-sweaty
- inhibition of BETA-G (beta-glucuronidase [1]): +
- inhibition of AS (aryl sulfatase [2]; [7]): +
- effective inhibitor concentration range for AS (aryl sulfatase [4]): 10-100 82 M

Compound: Oc1cc(Cl)ccc1Oc1ccc(Cl)cc1Cl [Irgasan, reference compound]
- MIC, STAPHYLOCOCCUS AUREUS (S. aureus): < 0.5 ppm
- MIC, STAPHYLOCOCCUS EPIDERMIS (S. epidermidis): < 0.5 ppm
- MIC, LIPOPHILIC DIPHTHEROID (lipophilic diphtheroid [5]): 16 ppm

Compound: [Cu+2] [Cu++]
- inhibition of BETA-G (beta-glucuronidase [1]): +
- inhibition of AS (aryl sulfatase [2]; [7]): +
- effective inhibitor concentration range for beta-G (beta-glucuronidase [3]): 10 to 100 µM
- effective inhibitor concentration range for AS (aryl sulfatase [4]): 0.1 to 10 µM

Compound: c1cnc2c(c1)ccc1cccnc12 [O-phenanthroline, o-phenanthroline]
- inhibition of BETA-G (beta-glucuronidase [1]): +
- level at which inhibition of beta-G is provided (beta-glucuronidase [3]): millimolar levels

Compound: O=C(O)CC(O)(CC(=O)O)C(=O)O [Citrate]
- inhibition of BETA-G (beta-glucuronidase [1]): -

Compound: mannose
- inhibition of BETA-G (beta-glucuronidase [1]): -

Compound: aluminum chlorhydrate [ACH]
- % Difference (decrease in odor vs H2O axilla) (axillary odor; application #2, 5 hr): 34.0%
- Mean Odor Score (axillary odor; application #2, 5 hr): 3.13
- % Difference (decrease in odor vs H2O axilla) (axillary odor; application #2, 24 hr): 27.8%
- Mean Odor Score (axillary odor; application #2, 24 hr): 3.91
- % Difference (decrease in odor vs H2O axilla) (axillary odor; application #3, 5 hr): 28.8%
- Mean Odor Score (axillary odor; application #3, 5 hr): 2.95
- % Difference (decrease in odor vs H2O axilla) (axillary odor; application #3, 24 hr): 26.1%
- Mean Odor Score (axillary odor; application #3, 24 hr): 3.88
- % Difference (decrease in odor vs H2O axilla) (axillary odor; application #4, 5 hr): 34.9%
- Mean Odor Score (axillary odor; application #4, 5 hr): 2.90
- % Difference (decrease in odor vs H2O axilla) (axillary odor; application #4, 24 hr): 29.5%
- Mean Odor Score (axillary odor; application #4, 24 hr): 3.64

Compound: O=C(O)[C@@H](O)[C@H]1OC(=O)[C@H](O)[C@H]1O [D-glucaro-.tangle-solidup.-lactone, D-saccharic acid-.tangle-solidup.-lactone, reference compound]
- odor (mixture of AS and betaG): No odor to faint musky-sweaty
- odor (lipophilic diphtheroid [6]): Moderate sweaty
- inhibition of BETA-G (beta-glucuronidase [1]): +
- effective inhibitor concentration range for beta-G (beta-glucuronidase [3]): 1-10 μm

Compound: [Cl-].[Cl-].[Zn+2] [ZnCl2]
- MIC, STAPHYLOCOCCUS AUREUS (S. aureus): > 1000 ppm
- MIC, STAPHYLOCOCCUS EPIDERMIS (S. epidermidis): > 1000 ppm
- MIC, LIPOPHILIC DIPHTHEROID (lipophilic diphtheroid [5]): > 1000 ppm
